Experimental data reported in patent US20230084978A1, “OPTIMIZATION OF PEPTIDE-MELANIN BINDING” (ASSITANCE PUBLIQUE - HÔPITAUX DE PARIS, priority 2020, published 2023).

Key:
[1] = Binding of peptides to synthetic melanin (Tricine-SDS-PAGE analysis); details: for Percentage of peptide binding to melanin, Mel + peptide: L-Dopa polymerized 2 h at pH 8.5 and 60° C. before the peptide was added; for binding of the peptides to melanin (in words), SDS-page analysis: antigen added just after L-Dopa is polymerized in melanin; for Percentage of peptide binding to melanin, Peptide-Mel: peptide mixed with L-Dopa (1/4 gp100, 1/6 EphA2), then 2 hours at pH 8.5 and 60° C.
Excerpt: The binding of the peptide to the melanin can be verified by Tricine-SDS-PAGE analysis as described in Carpentier; 2017 (op. cit.). Briefly, samples (peptide-Mel or peptide alone) are loaded on acrylamide gels. Following electrophoresis, the gels are stained with Coomassie Brilliant Blue R-250, allowing the quantification of the free peptide in the gel. The binding of peptides to melanin can be expressed as the ratio: [amount of unbound peptide in samples Peptide-Mel/amount of peptides in control samples containing peptides alone.
Peptides were mixed with L-Dopa (weight ratio peptide/L-Dopa=1/4 and 1/6 for gp100 and EphA2, respectively) then incubated for 2 hours at pH 8.5 and 60° C. under agitation to ensure oxygenation of the solution to generate nanoparticles of melanin-bound peptides (Peptide-Mel). Alternatively, L-Dopa alone (0.8 mg/ml) was polymerized into melanin for 2 h at pH 8.5 and 60° C. under agitation, before the peptides (weight ratio peptide/L-Dopa=1/4 and 1/6 for gp100 and EphA2, respectively) were added to the solution (Mel+peptide). Tricine-SDS-PAGE analysis was performed as described in Carpentier; 2017 (op. cit.). Briefly, samples (peptide-Mel or peptide alone) were loaded on acrylamide gels. Following electrophoresis, the gels were stained with Coomassie Brilliant Blue R-250 and imaged with the ChemiDoc XRS+ system (Bio-Rad Laboratory), allowing the quantification of the free peptide in the gel. The binding of peptides to melanin was expressed as the ratio: [amount of unbound peptide in samples Peptide-Mel/amount of peptides in control samples containing peptides alone]
First column (Peptide-Mel): L-Dopa (0.8 mg/ml) was mixed with peptides (weight ratio peptide/L-Dopa=1/4) then incubated for 2 hours at pH 8.5 and 60° C. to generate nanoparticles of melanin-bound peptides. Alternatively (second column; Mel+peptide), L-Dopa alone (0.8 mg/ml) was first polymerized into melanin for 2 h at pH 8.5 and 60° C. under vigorous agitation, before the peptides (weight ratio peptide/L-Dopa=1/4) were added to the solution and incubated for 2 hours at room temperature. In both cases, the percentage of peptides that bound to melanin was then quantified with SPS-page analysis, as described in table 1. (ND=not done)
(§1) L-Dopa (0.8 mg/ml) underwent an oxidative polymerization at pH 8.5 in aerobic conditions for 2 hours at 60° C. The reaction mixture was then filtered on a 10 kDa filter, and the retentate containing the synthetic melanin was resuspended at pH 7.5 in phosphate buffer. Peptides were then added (at the weight ratio peptide/L-Dopa=1/4) and the mixture was incubated for various periods of time and or pH. The percentage of peptides that bound to melanin was then quantified with SPS-page analysis, as described in table 1. (ND=not done).
as §1, with “8.5 and 60° C.” for “8.5 in aerobic conditions”, “2 hours.” for “2 hours at 60° C.”, “of time. Binding” for “of time and or pH. The percentage”, “of the” for “of”, “peptides” for “peptides that bound to melanin”, “(ND=not done)” for “(ND=not done).”

[2] = system: C57BL/6 mice; assay: CTL response (IFNg-SFCs of re-stimulated splenocytes) after subcutaneous immunization; format: in vivo; details: antigen added just after polymerization (Mel+peptide) + CpG-28, subcutaneous, 10 μg/mouse, day 8
Experimental: FIG. 1: CTL response after subcutaneous immunizations in 5-weeks old, C57BL/6, mice. Peptides (10 μg/mouse) were mixed with L-Dopa (weight ratio peptide/L-Dopa=1/4 and 1/6 for gp100 and EphA2 respectively) and incubated under the above described conditions (see table 1). Phosphorothioate oligonucleotide CpG-28 (5′-[…], SEQ ID NO: 21), were added to vaccine formulations (10 μg/mouse) just before the immunizations. Mice were then immunized sub-cutaneously with gp100-Mel+CpG (“gp100-Mel”), or with previously synthesized melanin mixed with gp100 and CpG (“Mel+gp100”); EphA2-Mel+CpG (“EphA2-Mel”), melanin+EphA2+CpG (“Mel+EphA2”). Mice were sacrificed on day 8 and the CTL response was performed as described in Carpentier; 2017. Briefly, splenocytes were re-stimulated in vitro with the corresponding MHC class 1-epitope (non-conjugated to melanin) and the numbers of IFNg-SFCs (Spot forming cells) were measured and expressed as Mean+/−S.E.M. (n=8 mice/group with pooled data from 2 different experiments of 4 mice each. Student-T test: gp100-Mel vs Mel+gp100: p<0.001; EphA2-Mel vs Mel+EphA2: p<0.001)
FIG. 2: CTL response after subcutaneous immunizations in C57BL/6 mice. […]

| Percentage of peptide binding to melanin, Mel + peptide [1] | binding of the peptides to melanin (in words), SDS-page analysis [1] | Binding of peptides on synthetic melanin, Mel + peptide 10 minutes ([1]; filtered preformed melanin at pH 7.5, peptide/L-Dopa 1/4, 10 minutes) | Binding of peptides on synthetic melanin, Mel + peptide 2 hours ([1]; filtered preformed melanin at pH 7.5, peptide/L-Dopa 1/4, 2 hours) | Binding of peptides on synthetic melanin, Mel + peptide 18 hours ([1]; filtered preformed melanin at pH 7.5, peptide/L-Dopa 1/4, 18 hours) | Percentage of peptide binding to melanin, Peptide-Mel [1] | Sequence | ability of the vaccine formulation to trigger a CTL (CD8) response [2] |
| --- | --- | --- | --- | --- | --- | --- | --- |
| 23 +/− 8% | minimal binding | 6% | 22% | 89% | 100 +/− 0% | KVPRNQDWL (gp100 peptide) [SEQ ID NO: 1, reference compound] | lost |
| 9 +/− 6% | minimal binding |  |  |  | 93 +/− 12% | FSHHNIIRL (EphA2 peptide) [SEQ ID NO: 2, reference compound] | lost |
